# Data published in US9884048B2, “ERK inhibitors” (Merck Sharp & Dohme Corp., priority 2014, dated 2018).
# Biological target: phosphorylated active hERK2 enzyme (Homo sapiens (Human), UniProt P28482)
# Details: not given
# Sequence of phosphorylated active hERK2 enzyme (P28482 whole entry): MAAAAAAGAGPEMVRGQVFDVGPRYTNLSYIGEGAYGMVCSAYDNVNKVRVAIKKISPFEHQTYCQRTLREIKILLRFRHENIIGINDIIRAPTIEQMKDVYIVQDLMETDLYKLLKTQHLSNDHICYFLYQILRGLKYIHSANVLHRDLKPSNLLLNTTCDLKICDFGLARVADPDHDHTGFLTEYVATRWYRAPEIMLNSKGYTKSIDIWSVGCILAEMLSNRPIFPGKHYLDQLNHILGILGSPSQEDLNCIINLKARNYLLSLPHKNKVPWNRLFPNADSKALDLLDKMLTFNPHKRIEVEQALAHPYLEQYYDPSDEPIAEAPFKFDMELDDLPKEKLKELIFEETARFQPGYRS
row,SMILES,IC50
1,"CO[C@H]1CCCC[C@@H]1NC(=O)Nc1cc2cnn(-c3ccnc(C)c3)c2cn1 (racemic) [Example 145, Racemic 1-[(1S,2S) and (1R,2R)-2-methoxycyclohexyl]-3-[1-(2-methylpyridin-4-yl)-1H-pyrazolo[3,4-c]pyridin-5-yl)urea]",122 nM
2,"CCO[C@H]1CCCC[C@@H]1NC(=O)Nc1cc2cnn(-c3ccnc(C)c3)c2cn1 (racemic) [Example 146, Racemic 1-[(1S,2S) and (1R,2R)-2-ethoxycyclohexyl]-3-[1-(2-methylpyridin-4-yl)-1H-pyrazolo[3,4-c]pyridin-5-yl]urea]",180 nM
3,"CCO[C@H]1CCC[C@@H]1NC(=O)Nc1cc2cnn(-c3ccnc(C)c3)c2cn1 (racemic) [Example 147, Racemic 1-[(1S,2S) and (1R,2R)-2-ethoxycyclopentyl]-3-[1-(2-methylpyridin-4-yl)-1H-pyrazolo[3,4-c]pyridin-5-yl]urea]",33.7 nM
4,"Cc1cc(-n2ncc3cc(NC(=O)N[C@H]4CCC[C@H]4c4ccccc4)ncc32)ccn1 (racemic) [Example 148, Racemic 1-[1-(2-methylpyridin-4-yl)-1H-pyrazolo[3,4-c]pyridin-5-yl]-3-[(1S,2S) and (1R, 2R)-2-phenylcyclopentyl]urea]",7.93 nM
5,"Cc1cc(-n2ncc3cc(NC(=O)N[C@H]4CCCC[C@@H]4NC(=O)c4ccccc4)ncc32)ccn1 (racemic) [Example 152, Racemic Trans N-[(1S,2S) and (1R, 2R)-2-({[1-(2-methylpyridin-4-yl)-1H-pyrazolo[3,4-c]pyridin-5-yl]carbamoyl}amino)cyclo-hexy]benzamide]",711 nM
6,"Cc1cc(-n2ncc3cc(NC(=O)N[C@H]4CCC[C@H]4c4ccc(F)cc4)ncc32)ccn1 (racemic) [Example 153, Racemic cis 1-[(1S,2S) and (1R,2R)-2-(4-fluorophenyl)cyclopentyl]-3-[1-(2-methylpyridin-4-yl)-1H-pyrazolo[3,4-c]pyridin-5-yl]urea]",42.3 nM
7,"Cc1cc(-n2ncc3cc(NC(=O)N[C@H]4CCC[C@@H]4Oc4ccc(F)cc4)ncc32)ccn1 (racemic) [Example 166, Racemic trans 1-[(1S,2S) and (1R,2R)-2-(4-fluorophenoxy)cyclopentyl]-3-[1-(2-methylpyridin-4-yl)-1H-pyrazolo[3,4-c]-pyridin-5-yl)urea]",66.6 nM
8,"Cc1cc(-n2ncc3cc(NC(=O)N[C@H]4CCCC[C@H]4Cc4ccccc4)ncc32)ccn1 (racemic) [Example 167, Racemic cis 1-[(1S,2S) and (1R,2R)-2-benzylcyclohexyl]-3-[1-(2-methylpyridin-4-yl)-1H-pyrazolo[3,4-c]pyridin-5-yl)urea]",23.1 nM
9,"Cc1cc(-n2ncc3cc(NC(=O)N[C@H]4CCC[C@@H]4c4ccccc4)ncc32)ccn1 (racemic) [Example 168, Racemic trans 1-[1-(2-methylpyridin-4-yl)-1H-pyrazolo[3,4-c]pyridin-5-yl]-3-[(1S,2R) and (1R,2S)-2-phenylcyclopentyl]urea]",7.34 nM
10,"Cc1cc(-n2ncc3cc(NC(=O)N[C@H]4CCCC[C@H]4c4ccc(F)cc4)ncc32)ccn1 (racemic) [Example 174, Racemic cis 1-[(1S,2S) and (1R,2R)-2-(4-fluorophenyl)cyclohexyl]-3-[1-(2-methylpyridin-4-yl)-1H-pyrazolo[3,4-c]pyridin-5-yl]urea]",19.1 nM
11,"Cc1cc(-n2ncc3cc(NC(=O)N[C@H]4CN(C)C[C@@H]4c4cccc(F)c4)ncc32)ccn1 [Example 19, 1-[(3R,4S)-4-(3-fluorophenyl)-1-methylpyrrolidin-3-yl]-3-[1-(2-methylpyridin-4-yl)-1H-pyrazolo[3,4-c]pyridin-5-yl)urea]",3.07 nM

# Same assay, conditions: ERK2 IC50, IMAP-FP assay; 0.5 nM hERK2, 30 μM ATP; 10 point titration, 3 μM starting concentration
row,SMILES,IC50
1,"Cc1cc(-n2ncc3cc(NC(=O)N[C@H]4CCCC[C@@H]4c4ccccc4)ncc32)ccn1 (racemic) [Example 151, Racemic trans 1-[1-(2-methylpyridin-4-yl)-1H-pyrazolo[3,4-c]pyridin-5-yl]-3-[(1S,2R) and (1R,2S)-2-phenylcyclohexyl]urea]",3.65 nM
2,"Cc1cc(-n2ncc3cc(NC(=O)N[C@H]4CCCC[C@@H]4c4ccccc4)ncc32)ccn1 (racemic) [Example 169, Racemic trans 1-[1-(2-methylpyridin-4-yl)-1H-pyrazolo[3,4-c]pyridin-5-yl]-3-[(1S,2R) and (1R,2S)-2-phenylcyclohexyl]urea]",65.7 nM

# Same assay, conditions: read-out: ERK2 IC50; IMAP-FP assay; 0.5 nM hERK2, 30 μM ATP; 10 point titration, 3 μM starting concentration
row,SMILES,IC50
1,"Cc1cc(-n2ncc3cc(NC(=O)N[C@H]4CN(C)C[C@@H]4c4ccccc4C)ncc32)ccn1 (single isomer, unassigned) [Example 36, 1-[(3R,4S) or (3S, 4R)-1-methyl-4-(2-methylphenyl)pyrrolidin-3-yl]-3-[1-(2-methylpyridin-4-yl)-1H-pyrazolo[3,4-c]pyridin-5-yl)urea]",0.83 nM
2,"CO[C@H]1CN(Cc2c(F)cccc2F)C[C@@H]1NC(=O)Nc1cc2cnn(-c3ccnc(C)c3)c2cn1 (single isomer, unassigned) [Example 273, 1-[(3S,4S) or (3R, 4R)-1-(2,6-difluorobenzyl)-4-methoxypyrrolidin-3-yl]-3-[1-(2-methylpyridin-4-yl)-1H-pyrazolo[3,4-c]pyridin-5-yl]urea]",2060 nM
3,"CO[C@H]1CN(Cc2c(F)cccc2F)C[C@@H]1NC(=O)Nc1cc2cnn(-c3ccnc(C)c3)c2cn1 (single isomer, unassigned) [Example 274, 1-[(3R,4R) or (3S, 4S)-1-(2,6-difluorobenzyl)-4-methoxypyrrolidin-3-yl]-3-[1-(2-methylpyridin-4-yl)-1H-pyrazolo[3,4-c]pyridin-5-yl]urea]",3.54 nM
4,"O=C(NCc1ccc(F)cc1)Nc1cc2cnn(-c3ccc(F)cc3)c2cn1 [Example 1, 1-(4-fluorobenzyl)-3-(1-(4-fluorophenyl)-1H-pyrazolo[3,4-c]pyridin-5-yl)urea]",26 nM
5,"O=C(NCc1ccccc1)Nc1cc2cnn(-c3ccncc3)c2cn1 [Example 2, 1-benzyl-3-(1-pyridin-4-yl-1H-pyrazolo[3,4-c]pyridin-5-yl)urea]",2.7 nM
6,"C[C@@H](NC(=O)Nc1cc2cnn(-c3ccc(F)cc3)c2cn1)c1ccc(F)cc1 [Example 3, 1-[(1R)-1-(4-fluorophenyl)ethyl]-3-[1-(4-fluorophenyl)-1H-pyrazolo[3,4-c]pyridin-5-yl)urea]",10.6 nM
7,"Cn1cc(-n2ncc3cc(NC(=O)NCc4ccc(F)cc4)ncc32)cn1 [Example 4, 1-(4-fluorobenzyl)-3-[1-(1-methyl-1H-pyrazol-4-yl)-1H-pyrazolo[3,4-c]pyridin-5-yl)urea]",41.3 nM
8,"C[C@@H](NC(=O)Nc1cc2cnn(-c3cnn(C)c3)c2cn1)c1ccc(F)cc1 [Example 5, 1-[(1R)-1-(4-fluorophenyl)ethyl]-3-[1-(1-methyl-1H-pyrazol-4-yl)-1H-pyrazolo[3,4-c]pyridin-5-yl)urea]",12.2 nM
9,"O=C(NCc1ccc(F)cc1)Nc1cc2cnn(-c3ccncc3)c2cn1 [Example 6, 1-(4-fluorobenzyl)-3-(1-pyridin-4-yl-1H-pyrazolo[3,4-c]pyridin-5-yl)urea]",1.8 nM
10,"C[C@@H](NC(=O)Nc1cc2cnn(-c3ccncc3)c2cn1)c1ccc(F)cc1 [Example 7, 1-[(1R)-1-(4-fluorophenyl)ethyl]-3-(1-pyridin-4-yl-1H-pyrazolo[3,4-c]pyridin-5-yl)urea]",16.2 nM
11,"O=C(NCCc1ccccc1)Nc1cc2cnn(-c3ccncc3)c2cn1 [Example 8, 1-(2-phenylethyl)-3-(1-pyridin-4-yl-1H-pyrazolo[3,4-c]pyridin-5-yl)urea]",16.2 nM
12,"COc1ccc(CNC(=O)Nc2cc3cnn(-c4ccncc4)c3cn2)cc1 [Example 9, 1-(4-methoxybenzyl)-3-(1-pyridin-4-yl-1H-pyrazolo[3,4-c]pyridin-5-yl)urea]",5.3 nM
13,"O=C(Nc1cc2cnn(-c3ccncc3)c2cn1)NC1CCCc2ccccc21 (stereo not shown) [Example 10, 1-(1-pyridin-4-yl-1H-pyrazolo[3,4-c]pyridin-5-yl)-3-(1,2,3,4-tetrahydronaphthalen-1-yl)urea]",34.7 nM
14,"O=C(NCc1ccc(Cl)cc1Cl)Nc1cc2cnn(-c3ccncc3)c2cn1 [Example 11, 1-(2,4-dichlorobenzyl)-3-(1-pyridin-4-yl-1H-pyrazolo[3,4-c]pyridin-5-yl)urea]",26 nM
15,"O=C(NCc1ccc(Cl)c(Cl)c1)Nc1cc2cnn(-c3ccncc3)c2cn1 [Example 12, 1-(3,4-dichlorobenzyl)-3-(1-pyridin-4-yl-1H-pyrazolo[3,4-c]pyridin-5-yl)urea]",0.9 nM
16,"O=C(NCc1ccc(Cl)c(Cl)c1)Nc1cc2cnn(-c3ccc(F)cc3)c2cn1 [Example 13, 1-(3,4-dichlorobenzyl)-3-[1-(4-fluorophenyl)-1H-pyrazolo[3,4-c]pyridin-5-yl]urea]",19.7 nM
17,"Cc1cc(-n2ncc3cc(NC(=O)NCCN(C)C)ncc32)ccn1 [Example 15, 1-(2-(dimethylamino)ethyl)-3-(1-(2-methylpyridin-4-yl)-1H-pyrazolo[3,4-c]pyridin-5-yl)urea]",1430 nM
18,"Cc1cc(-n2ncc3cc(NC(=O)N[C@H]4CN(C)C[C@@H]4c4ccccc4Cl)ncc32)ccn1 [Example 16, 1-[(3R,4S)-4-(2-chlorophenyl)-1-methylpyrrolidin-3-yl]-3-[1-(2-methylpyridin-4-yl)-1H-pyrazolo[3,4-c]pyridin-5-yl]urea]",0.952 nM
19,"Cc1cc(-n2ncc3cc(NC(=O)N[C@H]4COC[C@@H]4c4ccccc4)ncc32)ccn1 [Example 17, 1-[1-(2-methylpyridin-4-yl)-1H-pyrazolo[3,4-c]pyridin-5-yl]-3-[(3R,4R)-4-phenyltetrahydrofuran-3-yl]urea]",1.83 nM
20,"Cc1cc(-n2ncc3cc(NC(=O)N[C@H]4CN(C)C[C@@H]4c4ccc(F)c(Cl)c4)ncc32)ccn1 [Example 18, 1-[(3R,4S)-4-(3-chloro-4-fluorophenyl)-1-methylpyrrolidin-3-yl]-3-[1-(2-methylpyridin-4-yl)-1H-pyrazolo[3,4-c]pyridin-5-yl)urea]",2.14 nM
21,"Cc1cc(-n2ncc3cc(NC(=O)N[C@@H]4CCN(C)C4)ncc32)ccn1 [Example 20, 1-[1-(2-methylpyridin-4-yl)-1H-pyrazolo[3,4-c]pyridin-5-yl]-3-[(3R)-1-methylpyrrolidin-3-yl)urea]",50.5 nM
